# Assay results as given in patent US4268630A, “Microbiological production of ketones from C3 -C6 alkanes” (priority 1979, dated 1981).
# Tests used:
# [1] = test system: Candida utilis ATCC 26387; assay: Oxidation of sec-alcohols to ketones by cell suspensions of yeasts; format: cell-based
# [2] = test system: Hansenula polymorpha ATCC 26012; assay: as above; format: cell-based
# Pichia sp. NRRL-Y-11328 = assay: as above; format: cell-based
# [3] = test system: Torulopsis sp. Strain A1 (NRRL Y-11,419); assay: as above; format: cell-based
# [4] = test system: Kloeckera sp. Strain A2 (NRRL Y-11,420); assay: as above; format: cell-based
# [5] = test system: cell-free soluble extract of Methylobacterium organophilum CRL 26 (NRRL B-11,222); assay: Oxidation of secondary alcohols by cell-free soluble extract (NAD added); format: biochemical; settings: soluble crude extract, grown on methanol
# Experimental: (§1) To prepare the cell-free secondary alcohol dehydrogenase (SADH) system, the washed cells were disrupted with a Wave Energy Ultrasonic Oscillator, Model W201 (Wave Energy System, Inc., Newtown, Pa.) and centrifuged at 20,000× g. for 30 minutes. […] The enzyme activity was measured with a fluorescence spectrophotometer (Perkin Elmer, Model MPF 44A) by following the formation of reduced NAD (EX 340 nm, Em 460 nm). The formation of reduced NAD was also followed with an absorption spectrophotometer at 340 nm. The assay system (3 ml.) contained: potassium phosphate buffer pH 7.0; 150 μmol.; NAD 1 μmol.; a given amount of enzyme preparation; and secondary alcohol 10 μmol. The reaction was started by the addition of substrate. One unit of enzyme activity represents the reduction of one μmole NAD per minute. Protein concentrations were determined by the Lowry method (J. Biol. Chem., 193: 255-275 (1951)).
# (§2) The experimental procedure for the tests reported in Table VIII were as follows: 1 mg protein of crude extract was added into a 0.5 ml. 0.05 M phosphate buffer (pH 7.0) in a 10-ml. vial. […] The reaction mixture was incubated at 30° C. on a water bath. A 3 μl sample was removed with a syringe at 15 min. of incubation and was assayed with g.l.c. Catalytic activity was also assayed by fluorescence spectrophotometry.
# [6] = test system: cell-free soluble extract of Methylococcus capsulatus CRL M1 (NRRL B-11,219); assay: as above; format: biochemical; settings: soluble crude extract, grown on methanol
# Experimental: as §1, §2
# [7] = test system: cell-free soluble extract of Methylosinus trichosporium OB3b (NRRL B-11,196); assay: as above; format: biochemical; settings: soluble crude extract, grown on methanol
# Experimental: as §1, §2
# [8] = test system: cell-free soluble extract of Pseudomonas sp. CRL 75 (ATCC 21,439); assay: as above; format: biochemical; settings: soluble crude extract, grown on methanol
# Experimental: as §1, §2
# [9] = test system: cell extracts of Candida utilis ATCC 26,387; assay: NAD+-dependent oxidation of secondary alcohols by cell extracts of yeasts; format: biochemical; settings: cell extracts, grown on methanol, NAD+; gas chromatography
# [10] = test system: cell extracts of Hansenula polymorpha ATCC 26,012; assay: as above; format: biochemical; settings: cell extracts, grown on methanol, NAD+; gas chromatography
# [11] = test system: cell extracts of Kloeckera sp. strain A2 NRRL Y-11,420; assay: as above; format: biochemical; settings: cell extracts, grown on methanol, NAD+; gas chromatography
# [12] = test system: cell suspensions of C1-utilizers; assay: Production of 2-butanone from 2-butanol / sec-alcohol oxidation by cell suspensions of the strains tested; format: cell-based; settings: cell suspensions of C1-utilizers
# Text: The substrate specificity for the oxidation of C3 -C6 secondary alcohols by the strains of C1 -utilizers was studied.
SMILES,"Conversion Rate, sec-alcohol to ketone ([1]; growth substrate Ethanol)","Conversion Rate, sec-alcohol to ketone ([1]; growth substrate Methanol)","Conversion Rate, sec-alcohol to ketone ([1]; growth substrate Methylamine)","Conversion Rate, sec-alcohol to ketone ([1]; growth substrate Methylformate)","Conversion Rate, sec-alcohol to ketone ([1]; growth substrate Propylamine)","Conversion Rate, sec-alcohol to ketone ([2]; growth substrate Ethanol)","Conversion Rate, sec-alcohol to ketone ([2]; growth substrate Methanol)","Conversion Rate, sec-alcohol to ketone ([2]; growth substrate Methylamine)","Conversion Rate, sec-alcohol to ketone ([2]; growth substrate Methylformate)","Conversion Rate, sec-alcohol to ketone ([2]; growth substrate Propylamine)","Conversion Rate, sec-alcohol to ketone (Pichia sp. NRRL-Y-11328; growth substrate Ethanol)","Conversion Rate, sec-alcohol to ketone (Pichia sp. NRRL-Y-11328; growth substrate Methanol)","Conversion Rate, sec-alcohol to ketone (Pichia sp. NRRL-Y-11328; growth substrate Methylamine)","Conversion Rate, sec-alcohol to ketone (Pichia sp. NRRL-Y-11328; growth substrate Methylformate)","Conversion Rate, sec-alcohol to ketone (Pichia sp. NRRL-Y-11328; growth substrate Propylamine)","Conversion Rate, sec-alcohol to ketone ([3]; growth substrate Ethanol)","Conversion Rate, sec-alcohol to ketone ([3]; growth substrate Methanol)","Conversion Rate, sec-alcohol to ketone ([3]; growth substrate Methylamine)","Conversion Rate, sec-alcohol to ketone ([3]; growth substrate Methylformate)","Conversion Rate, sec-alcohol to ketone ([3]; growth substrate Propylamine)",other results
"CCCCC(C)O (stereo not drawn) [2-Hexanol, 2-hexanol]",0.72 μmoles/hr/mg of protein,0.8 μmoles/hr/mg of protein,0.61 μmoles/hr/mg of protein,0.75 μmoles/hr/mg of protein,0.52 μmoles/hr/mg of protein,0.54 μmoles/hr/mg of protein,0.72 μmoles/hr/mg of protein,0.62 μmoles/hr/mg of protein,0.70 μmoles/hr/mg of protein,0.48 μmoles/hr/mg of protein,0.28 μmoles/hr/mg of protein,0.50 μmoles/hr/mg of protein,0.31 μmoles/hr/mg of protein,0.48 μmoles/hr/mg of protein,0.21 μmoles/hr/mg of protein,0.20 μmoles/hr/mg of protein,0.21 μmoles/hr/mg of protein,0.12 μmoles/hr/mg of protein,0.25 μmoles/hr/mg of protein,0.10 μmoles/hr/mg of protein,"Conversion Rate, sec-alcohol to ketone ([4]; growth substrate Ethanol): 0.12 μmoles/hr/mg of protein; Conversion Rate, sec-alcohol to ketone ([4]; growth substrate Methanol): 0.25 μmoles/hr/mg of protein; Conversion Rate, sec-alcohol to ketone ([4]; growth substrate Methylamine): 0.10 μmoles/hr/mg of protein; Conversion Rate, sec-alcohol to ketone ([4]; growth substrate Methylformate): 0.28 μmoles/hr/mg of protein; Conversion Rate, sec-alcohol to ketone ([4]; growth substrate Propylamine): 0.11 μmoles/hr/mg of protein; Oxidation Rate, sec-alcohol to methyl ketone [5]: 0 nmole/min/mg protein; Oxidation Rate, sec-alcohol to methyl ketone [6]: 0 nmole/min/mg protein; Oxidation Rate, sec-alcohol to methyl ketone [7]: 0 nmole/min/mg protein; Oxidation Rate, sec-alcohol to methyl ketone [8]: 0 nmole/min/mg protein; Conversion Rate, secondary alcohol to methylketone [9]: 0.45 μmoles/hr/mg Protein; Conversion Rate, secondary alcohol to methylketone [10]: 0.51 μmoles/hr/mg Protein; Conversion Rate, secondary alcohol to methylketone [11]: 0.25 μmoles/hr/mg Protein; substrate specificity: rate of oxidation of secondary alcohols (in words) [12]: oxidized at a much slower rate"
"CCCC(C)O (stereo not drawn) [2-Pentanol, 2-pentanol]",1.0 μmoles/hr/mg of protein,1.5 μmoles/hr/mg of protein,1.2 μmoles/hr/mg of protein,1.3 μmoles/hr/mg of protein,0.9 μmoles/hr/mg of protein,1.1 μmoles/hr/mg of protein,1.4 μmoles/hr/mg of protein,1.2 μmoles/hr/mg of protein,1.3 μmoles/hr/mg of protein,0.82 μmoles/hr/mg of protein,1.0 μmoles/hr/mg of protein,1.2 μmoles/hr/mg of protein,0.72 μmoles/hr/mg of protein,0.98 μmoles/hr/mg of protein,0.60 μmoles/hr/mg of protein,1.2 μmoles/hr/mg of protein,1.0 μmoles/hr/mg of protein,0.9 μmoles/hr/mg of protein,1.1 μmoles/hr/mg of protein,0.62 μmoles/hr/mg of protein,"Conversion Rate, sec-alcohol to ketone ([4]; growth substrate Ethanol): 1.0 μmoles/hr/mg of protein; Conversion Rate, sec-alcohol to ketone ([4]; growth substrate Methanol): 1.2 μmoles/hr/mg of protein; Conversion Rate, sec-alcohol to ketone ([4]; growth substrate Methylamine): 1.0 μmoles/hr/mg of protein; Conversion Rate, sec-alcohol to ketone ([4]; growth substrate Methylformate): 1.2 μmoles/hr/mg of protein; Conversion Rate, sec-alcohol to ketone ([4]; growth substrate Propylamine): 0.92 μmoles/hr/mg of protein; Oxidation Rate, sec-alcohol to methyl ketone [5]: 0.1 nmole/min/mg protein; Oxidation Rate, sec-alcohol to methyl ketone [6]: 0.1 nmole/min/mg protein; Oxidation Rate, sec-alcohol to methyl ketone [7]: 0.1 nmole/min/mg protein; Oxidation Rate, sec-alcohol to methyl ketone [8]: 1.2 nmole/min/mg protein; Conversion Rate, secondary alcohol to methylketone [9]: 0.82 μmoles/hr/mg Protein; Conversion Rate, secondary alcohol to methylketone [10]: 1.0 μmoles/hr/mg Protein; Conversion Rate, secondary alcohol to methylketone [11]: 1.2 μmoles/hr/mg Protein; substrate specificity: rate of oxidation of secondary alcohols (in words) [12]: oxidized at a much slower rate"
"CC(C)O [2-Propanol, 2-propanol]",5.2 μmoles/hr/mg of protein,6.2 μmoles/hr/mg of protein,5.0 μmoles/hr/mg of protein,5.6 μmoles/hr/mg of protein,4.2 μmoles/hr/mg of protein,5.0 μmoles/hr/mg of protein,5.9 μmoles/hr/mg of protein,5.2 μmoles/hr/mg of protein,5.6 μmoles/hr/mg of protein,4.1 μmoles/hr/mg of protein,4.5 μmoles/hr/mg of protein,5.2 μmoles/hr/mg of protein,4.2 μmoles/hr/mg of protein,4.9 μmoles/hr/mg of protein,3.2 μmoles/hr/mg of protein,4.2 μmoles/hr/mg of protein,4.5 μmoles/hr/mg of protein,4.3 μmoles/hr/mg of protein,4.5 μmoles/hr/mg of protein,3.2 μmoles/hr/mg of protein,"Conversion Rate, sec-alcohol to ketone ([4]; growth substrate Ethanol): 4.5 μmoles/hr/mg of protein; Conversion Rate, sec-alcohol to ketone ([4]; growth substrate Methanol): 4.8 μmoles/hr/mg of protein; Conversion Rate, sec-alcohol to ketone ([4]; growth substrate Methylamine): 4.0 μmoles/hr/mg of protein; Conversion Rate, sec-alcohol to ketone ([4]; growth substrate Methylformate): 4.9 μmoles/hr/mg of protein; Conversion Rate, sec-alcohol to ketone ([4]; growth substrate Propylamine): 4.0 μmoles/hr/mg of protein; Oxidation Rate, sec-alcohol to methyl ketone [5]: 2.1 nmole/min/mg protein; Oxidation Rate, sec-alcohol to methyl ketone [6]: 1.7 nmole/min/mg protein; Oxidation Rate, sec-alcohol to methyl ketone [7]: 2.0 nmole/min/mg protein; Oxidation Rate, sec-alcohol to methyl ketone [8]: 21.2 nmole/min/mg protein; Conversion Rate, secondary alcohol to methylketone [9]: 4.5 μmoles/hr/mg Protein; Conversion Rate, secondary alcohol to methylketone [10]: 4.8 μmoles/hr/mg Protein; Conversion Rate, secondary alcohol to methylketone [11]: 4.8 μmoles/hr/mg Protein; substrate specificity: rate of oxidation of secondary alcohols (in words) [12]: oxidized at higher rates"
